US20160264593A1 (priority 2013, published 2016)
“And” between values parts separate entries of the source, which are not always exact repeats. Identical values can stand only once.

Experiments:
[1] = test system: PP2A; test: PP2A activity in mouse livers after IP dosing (PP2A immunoprecipitation phosphatase assay, malachite green); type: in vivo, Balb/c mice; conditions: for Average Conc. (group of 3 mice) / Average Relative Activity (group, vehicle = 100) / Conc. (phosphate, single reading, per mouse) / Mean Conc. (per mouse) / Mean Conc. less IgG blank (per mouse) / Relative Conc. (per mouse, to vehicle) / Relative PP2A Activity (per mouse, vehicle = 100): liver
Experimental: (§1) Coomassie (Bradford) Protein Assay Kit (Pierce); PP2A Immunoprecipitation Phosphatase Assay Kit (Millipore); Lysate preparation for low endogenous phosphate: 20 mM imidazole-HCl, 2 mM EDTA, 2 mM EGTA, 1 mM PMSF, 1 mM benzamidine, 10 ug/ml each of aprotinin, leupeptin, antipain, soybean trypsin inhibitor; Normal Mouse IgG (Millipore); Okadaic acid (OA) (Tocris); DMSO (Sigma).
(§2) • Species: Mus Musculus • Strain: Balb/c mice • Age: 6-8 weeks • Sex: female • Body weight: 18-22 g • Vendor: Shanghai Laboratory Animal Center, Shanghai, China; • Number of animals: 66 Balb/c mice plus spare
(§3) The mice were kept in laminar flow rooms at constant temperature and humidity with 4 animals in each cage. • Temperature: 20-25 • Humidity: 40-70%. • Light cycle: 12 hours light and 12 hours dark. • Cages: Made of polycarbonate. The size is 29 cm×17.5 cm×12 cm (L×w×H). The bedding material is wood debris, which is changed once per week. • Diet: Animals had free access to irradiation sterilized dry granule food during the entire study period. • Water: Animals had free access to sterile drinking water. • Cage identification: the identification labels for each cage contained the following information: number of animals, sex, strain, date arrival, treatment, study number, group number, and the starting date of the treatment. • Animal identification: Animals were marked by ear punch.
(§4) All the procedures related to animal handling, care, and the treatment in this study were performed according to guidelines approved by the Institutional Animal Care and Use Committee (IACUC) of WuXi AppTec (Shanghai), following the guidance of the Association for Assessment and Accreditation of Laboratory Animal Care (AAALAC). At the time of routine monitoring, the animals were checked and recorded for any effects of tumor growth on normal behavior such as mobility, food and water consumption (by looking only), body weight gain/loss, eye/hair matting and any other abnormal effect.
(§5) 1. Proper amount of the compounds were weighed. 2. The compounds were dissolved in 4% sterile sodium bicarbonate. 3. All of the compounds should be well dissolved and clear. 4. The compounds should be kept cold once in solution and injected within an hour. 5. The mice were administered intraperitoneally according to their body weights, 20 g mouse was treated with 0.2 ml compound solution. 6. Mice were treated with vehicle and compounds according to Table 1. 7. 3 hours after the dose, 3 mice from each group were euthanized by
(§6) CO2 exposure, and the brains and left lobe of livers were taken and snap-frozen in liquid nitrogen immediately. 6 hours after the dose, the other 3 mice from each group were euthanized by CO2 exposure, and the brains and left lobe of livers were taken and snap-frozen in liquid nitrogen immediately.
(§7) Preparation of malachite green phosphate detection solution Added […] of Solution B to each 1 mL of Solution A, kept at room temperature during use. […] of mixed solution AB is used per assay well.
(§8) Diluted 125 mL Phosphate Standard (Solution C) with 1125 mL of distilled water to make 0.1 mM working solution. The solution was used to prepare a phosphate standard curve as described in the table below.
(§9) 1. 25 μL of each phosphate standards was transferred to wells of microliter plate. 2. Added 100 μL of Malachite Green Solution AB. Mixed carefully without creating bubbles. 3. Cultured for 15 minutes at RT. 4. Measured absorbance at a wavelength between 650 nm in a microliter plate reader.
(§10) 1. Dissolved 1 mg Threonine Phosphopeptide (Catalog #12-219) in 1.10 mL of distilled water to prepare a 1 mM solution. 2. Aliquot peptide solution and stored at ˜20° C. as necessary.
(§11) 1. Mouse brain or liver was homogenized using lysis buffer (25 g/L), centrifuged at 12000 g for 10 minutes at […], and the supernatants were collected. 2. The protein was quantitated, and 240 μg of mouse brain or liver lysate was taken to assay phosphatase activity. 3. […]

[2] = test system: PP2A; test: PP2A activity in mouse brains after IP dosing (PP2A immunoprecipitation phosphatase assay, malachite green); type: in vivo, Balb/c mice; set-up: Average Conc. (group of 3 mice): unit not given here; conditions: for Average Conc. (group of 3 mice) / Average Relative Activity (group, vehicle = 100) / Conc. (phosphate, single reading, per mouse) / Mean Conc. (per mouse) / Mean Conc. less IgG blank (per mouse) / Relative Conc. (per mouse, to vehicle) / Relative PP2A Activity (per mouse, vehicle = 100): brain
Experimental: as §1, §2, §3, §4, §5, §6, §7, §8, §9, §10, §11

[3] = high dose IP (mpk: 100 1.5, 113 2.2, 151 1.6, 157 2.0), 3 h
[4] = high dose IP (mpk: 100 1.5, 113 2.2, 151 1.6, 157 2.0), 6 h
[5] = low dose IP (mpk: 100 0.75, 113 1.1, 151 0.8, 153 0.85, 157 1.0), 3 h
[6] = low dose IP (mpk: 100 0.75, 113 1.1, 151 0.8, 153 0.85, 157 1.0), 6 h
[7] = high dose IP (mpk: 100 1.5, 113 2.2, 151 1.6, 153 1.7, 157 2.0), 3 h
[8] = high dose IP (mpk: 100 1.5, 113 2.2, 151 1.6, 153 1.7, 157 2.0), 6 h

activity of PP2A in livers as compared with vehicle (statement) ([1]; high dose IP, 3 h): significantly inhibited
activity of PP2A in livers as compared with vehicle (statement) ([1]; high dose IP, 6 h post treatment): significantly inhibited
activity of PP2A in livers as compared with vehicle (statement) ([1]; low dose IP, 3 h): significantly inhibited
activity of PP2A in livers as compared with vehicle (statement) ([1]; low dose IP, 6 h): significantly inhibited
activity of PP2A in brains (statement) ([2]; high dose IP, 3 h): most potent
Compound: CN1CCN(C(=O)C2C(C(=O)OCC(Cl)(Cl)Cl)[C@H]3CC[C@@H]2O3)CC1 (stereo partly shown) [Compound 113]
Average Conc. (group of 3 mice) [1, 3]: 138.31
Average Relative Activity (group, vehicle = 100) [1, 3]: 35.3
Conc. (phosphate, single reading, per mouse) [1, 3]: 200.67 and 204.55 and 192.25 and 216.22 and 155.1 and 163.31
Mean Conc. (per mouse) [1, 3]: 202.61 and 204.23 and 159.21
Mean Conc. less IgG blank (per mouse) [1, 3]: 152.24 and 153.86 and 108.83
Relative Conc. (per mouse, to vehicle) [1, 3]: 0.39 (2×) and 0.28
Relative PP2A Activity (per mouse, vehicle = 100) [1, 3]: 38.8 and 39.21 and 27.74
Average Conc. (group of 3 mice) [1, 4]: 104.16
Average Relative Activity (group, vehicle = 100) [1, 4]: 26.6
Conc. (phosphate, single reading, per mouse) [1, 4]: 246.88 and 269.98 and 80.17 and 78.45 and 124.87 and 126.82
Mean Conc. (per mouse) [1, 4]: 258.43 and 79.31 and 125.84
Mean Conc. less IgG blank (per mouse) [1, 4]: 208.06 and 28.94 and 75.47
Relative Conc. (per mouse, to vehicle) [1, 4]: 0.53 and 0.07 and 0.19
Relative PP2A Activity (per mouse, vehicle = 100) [1, 4]: 53.13 and 7.39 and 19.27
Average Conc. (group of 3 mice) [1, 5]: 179.91
Average Relative Activity (group, vehicle = 100) [1, 5]: 45.9
Conc. (phosphate, single reading, per mouse) [1, 5]: 258.54 and 266.31 and 211.9 and 190.3 and 226.36 and 228.31
Mean Conc. (per mouse) [1, 5]: 262.43 and 201.1 and 227.34
Mean Conc. less IgG blank (per mouse) [1, 5]: 212.05 and 150.73 and 176.96
Relative Conc. (per mouse, to vehicle) [1, 5]: 0.54 and 0.38 and 0.45
Relative PP2A Activity (per mouse, vehicle = 100) [1, 5]: 54.04 and 38.41 and 45.1
Average Conc. (group of 3 mice) [1, 6]: 212.74
Average Relative Activity (group, vehicle = 100) [1, 6]: 54.3
Conc. (phosphate, single reading, per mouse) [1, 6]: 229.82 and 254.44 and 279.7 and 291.58 and 266.31 and 256.81
Mean Conc. (per mouse) [1, 6]: 242.13 and 285.64 and 261.56
Mean Conc. less IgG blank (per mouse) [1, 6]: 191.76 and 235.27 and 211.19
Relative Conc. (per mouse, to vehicle) [1, 6]: 0.49 and 0.6 and 0.54
Relative PP2A Activity (per mouse, vehicle = 100) [1, 6]: 48.97 and 60.08 and 53.93
Average Conc. (group of 3 mice) [2, 7]: 892.56
Average Relative Activity (group, vehicle = 100) [2, 7]: 60.76
Conc. (phosphate, single reading, per mouse) [2, 7]: 1058.59 and 1029.91 and 726.72 and 714.92 and 925.07 and 938.33
Mean Conc. (per mouse) [2, 7]: 1044.25 and 720.82 and 931.70
Mean Conc. less IgG blank (per mouse) [2, 7]: 1037.88 and 714.45 and 925.33
Relative Conc. (per mouse, to vehicle) [2, 7]: 0.71 and 0.49 and 0.64
Relative PP2A Activity (per mouse, vehicle = 100) [2, 7]: 70.65 and 48.63 and 62.99
Average Conc. (group of 3 mice) [2, 8]: 897.74
Average Relative Activity (group, vehicle = 100) [2, 8]: 64.36
Conc. (phosphate, single reading, per mouse) [2, 8]: 366.91 and 317.74 and 1221.50 and 1051.60 and 1382.49 and 1084.37
Mean Conc. (per mouse) [2, 8]: 342.32 and 1136.55 and 1233.43
Mean Conc. less IgG blank (per mouse) [2, 8]: 335.96 and 1130.19 and 1227.07
Relative Conc. (per mouse, to vehicle) [2, 8]: 0.24 and 0.82 and 0.89
Relative PP2A Activity (per mouse, vehicle = 100) [2, 8]: 24.09 and 81.03 and 87.97
Average Conc. (group of 3 mice) [2, 5]: 1540.65
Average Relative Activity (group, vehicle = 100) [2, 5]: 104.88
Conc. (phosphate, single reading, per mouse) [2, 5]: 1602.05 and 1620.37 and 1450.70 and 1578.91 and 1521.79 and 1508.30
Mean Conc. (per mouse) [2, 5]: 1611.21 and 1514.81 and 1515.05
Mean Conc. less IgG blank (per mouse) [2, 5]: 1604.84 and 1508.44 and 1508.68
Relative Conc. (per mouse, to vehicle) [2, 5]: 1.10 and 1.04 (2×)
Relative PP2A Activity (per mouse, vehicle = 100) [2, 5]: 109.24 and 102.68 and 102.70
Average Conc. (group of 3 mice) [2, 6]: 1212.05
Average Relative Activity (group, vehicle = 100) [2, 6]: 86.90
Conc. (phosphate, single reading, per mouse) [2, 6]: 1379.36 and 1456.24 and 1108.96 and 1143.66 and 1072.56 and 1149.69
Mean Conc. (per mouse) [2, 6]: 1417.80 and 1126.31 and 1111.12
Mean Conc. less IgG blank (per mouse) [2, 6]: 1411.44 and 1119.94 and 1104.76
Relative Conc. (per mouse, to vehicle) [2, 6]: 1.02 and 0.81 and 0.80
Relative PP2A Activity (per mouse, vehicle = 100) [2, 6]: 101.19 and 80.29 and 79.21
